From patent US20240252488A1 (KOREA RESEARCH INSTITUTE OF CHEMICAL TECHNOLOGY, priority 2020, published 2024) come the findings set out here.

The term Kd denotes the equilibrium constant for the complex coming apart. A high value points to a looser complex.

One experiment concerns FADD−/− Jurkat cells. The experiment can be described thus: Necroptosis inhibition assay, TNF-α-induced necroptosis (CellTiter-Glo 2.0). The note with it: TNF-α 15 ng/mL; for Necroptosis inhibition assay (Rescue %) 1 μM: compound 1 μM; for Necroptosis inhibition assay (Rescue %) 10 μM: compound 10 μM. It is filed as cell-based, human. The procedure: Necroptosis Inhibition Assay
Necroptosis inhibition was evaluated by the following method.
80 μL of FADD gene-defective human T lymphocyte cells (FADD−/− Jurkat cells) were equally distributed into each well at 5.0×10^5 cells/mL in a white 96-well plate with a transparent bottom. 20 μL of the medium containing test compound was treated in each well so that the final concentration of the compound was 0.1, 1, and 10 μM, and reacted at room temperature for 30 minutes. After the 30-minute reaction was over, TNF (tumor necrosis factor)-α was treated in the corresponding well so that the final concentration of TNF-α was 15 ng/mL in order to induce necroptosis. It was cultured in a 5% CO2, 37° C. incubator for 20 to 24 hours.
After incubation, the 96-well plate was left at room temperature for 30 minutes. After 30 minutes, Promega's CellTiter-Glo 2.0 reagent was diluted 1:3 with PBS and 100 μL of the diluted solution was added to each well to confirm cell viability by measuring the amount of ATP. After the treatment, the plate was shielded from light and incubated at room temperature for 2 minutes with orbital shaking, and then left at room temperature for 10 minutes without shaking. After measuring the luminescence at 0.5 seconds per well using a plate scanner, the cytotoxicity and necroptosis inhibition rate for the compound were calculated using the measured values.
In general terms: ATP-based viability assays read luminescence as a measure of living cells.

The next experiment concerns the target T1, MLKL (Homo sapiens, UniProt Q8NB16).
T1 sequence (Q8NB16 1-471): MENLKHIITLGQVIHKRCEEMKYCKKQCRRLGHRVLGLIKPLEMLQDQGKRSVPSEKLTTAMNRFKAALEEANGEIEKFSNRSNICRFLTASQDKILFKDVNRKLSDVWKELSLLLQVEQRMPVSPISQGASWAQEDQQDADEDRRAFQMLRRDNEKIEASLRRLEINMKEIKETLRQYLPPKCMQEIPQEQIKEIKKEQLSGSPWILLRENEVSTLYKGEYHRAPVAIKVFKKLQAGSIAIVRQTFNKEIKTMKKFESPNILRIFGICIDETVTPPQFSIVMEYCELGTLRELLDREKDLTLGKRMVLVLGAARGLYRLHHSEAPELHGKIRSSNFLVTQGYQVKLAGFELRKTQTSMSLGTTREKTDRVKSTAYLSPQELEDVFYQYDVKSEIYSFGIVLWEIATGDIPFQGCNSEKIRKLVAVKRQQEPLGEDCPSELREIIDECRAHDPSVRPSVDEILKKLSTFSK
The experiment can be described thus: Measurement of binding affinity with MLKL receptor (competitive binding assay, Kd). Also on record: made in house; host or cells: HEK 293 cell line (T7 phage in E. coli BL21-derived host is also described). The procedure:
Measurement of Binding Affinity with MLKL Receptor (Competitive Binding Assay)
The binding affinity was evaluated by measuring the Kd value in the following method.
To prepare kinase-tagged T7 phage strains in an E. coli host derived from the BL21 strain, E. coli were grown to log-phase and infected with T7 phage and incubated with shaking at 32° C. until lysis. The lysates were centrifuged and filtered to remove cell debris. For kinase production, it was expressed in human embryonic kidney cell line (HEK 293 cell line), and subsequently tagged with DNA for qPCR detection.
The liganded beads were blocked with excess biotin and washed with blocking buffer (SeaBlock (Pierce), 1% BSA, 0.05% Tween 20, 1 mM DTT) to remove unbound ligand and to reduce non-specific binding. […] Test compounds were prepared as 111× stocks in 100% DMSO.
The compounds were then diluted directly into the assays such that the final concentration of DMSO was 0.9%. All reactions performed in polypropylene 384-well plate. Each was a final volume of 0.02 ml. […] The kinase concentration in the eluates was measured by qPCR.

SMILES strings stand for the structures. Structures can show the parent of a compound that is named as a salt. Where only a bound is given, the exact number is not on record here.

Consider `Nc1ncc(-c2ccc(N3CCN(CC4CCN(C(=O)CNc5cccc6c5C(=O)N(C5CCC(=O)NC5=O)C6=O)CC4)CC3)nc2)nc1C(=O)OC(C(=O)Nc1ccc(F)cc1)c1ccccc1` (centres unmarked) [TDH-232, 2-((4-fluorophenyl)amino)-2-oxo-1-phenylethyl 3-amino-6-(6-(4-((1-((2-(2,6-dioxopiperidin-3-yl)-1,3-dioxoisoindolin-4-yl)glycyl)piperidin-4-yl)methyl)piperazin-1-yl)pyridin-3-yl)pyrazine-2-carboxylate], for which, in the experiment with FADD−/− Jurkat cells, the “Necroptosis inhibition assay (Rescue %) 1 μM” value is given as 3.46%. For the same compound, the Kd at MLKL was found to be 260 nM.
As to `Nc1ncc(-c2cnn(C3CCN(CCCCCCCCCCNC(=O)COc4cccc5c4C(=O)N(C4CCC(=O)NC4=O)C5=O)CC3)c2)nc1C(=O)O[C@@H](C(=O)Nc1ccc(F)cc1)c1ccccc1` (stereo partly drawn) [TDH-163, (R)-2-((4-fluorophenyl)amino)-2-oxo-1-phenylethyl 3-amino-6-(1-(1-(10-(2-((2-(2,6-dioxopiperidin-3-yl)-1,3-dioxoisoindolin-4-yl)oxy)acetamido)decyl)piperidin-4-yl)-1H-pyrazol-4-yl)pyrazine-2-carboxylate], in the experiment with FADD−/− Jurkat cells, the “Necroptosis inhibition assay (Rescue %) 1 μM” value was 30.03% and the “Necroptosis inhibition assay (Rescue %) 10 μM” value amounted to 28.56%. The Kd on MLKL came to 45 nM.
Regarding `Nc1ncc(-c2cnn(C3CCN(CCOCCOCCNc4ccc5c(c4)C(=O)N(C4CCC(=O)NC4=O)C5=O)CC3)c2)nc1C(=O)O[C@@H](C(=O)Nc1ccc(F)cc1)c1ccccc1` (stereo partly drawn) [TDH-122, (R)-2-((4-fluorophenyl)amino)-2-oxo-1-phenylethyl 3-amino-6-(1-(1-(2-(2-(2-((2-(2,6-dioxopiperidin-3-yl)-1,3-dioxoisoindolin-5-yl)amino)ethoxy)ethoxy)ethyl)piperidin-4-yl)-1H-pyrazol-4-yl)pyrazine-2-carboxylate], in the experiment on FADD−/− Jurkat cells, the “Necroptosis inhibition assay (Rescue %) 1 μM” value turned out to be 20.17%. The compound further yielded a Kd at MLKL of 1.8 nM.
`Nc1ncc(C2=CCN(C(=O)CCCCCNC(=O)C3CCN(c4ccc5c(c4)C(=O)N(C4CCC(=O)NC4=O)C5=O)CC3)CC2)cc1C(=O)O[C@@H](C(=O)Nc1ccc(F)cc1)c1ccccc1` (stereo partly drawn) [TDH-074, (R)-2-((4-fluorophenyl)amino)-2-oxo-1-phenylethyl 6-amino-1′-(6-(1-(2-(2,6-dioxopiperidin-3-yl)-1,3-dioxoisoindolin-5-yl)piperidine-4-carboxamido)hexanoyl)-1′,2′,3′,6′-tetrahydro-[3,4′-bipyridine]-5-carboxylate]: in the experiment on FADD−/− Jurkat cells, the “Necroptosis inhibition assay (Rescue %) 1 μM” value was 14.54% and the “Necroptosis inhibition assay (Rescue %) 10 μM” value was 3.61%. This compound also returned a Kd on MLKL of 74 nM.
As for `CCN1CCN(c2ccc(-c3cnc(N)c(C(=O)O[C@@H](C(=O)Nc4ccc(F)cc4)c4ccccc4)n3)cn2)CC1` [TDH-183, (R)-2-((4-fluorophenyl)amino)-2-oxo-1-phenylethyl 3-amino-6-(6-(4-ethylpiperazin-1-yl)pyridin-3-yl)pyrazine-2-carboxylate], the Kd at MLKL came to 2 nM.
`Cc1cc(Nc2ncc(Cl)c(Nc3ccccc3S(=O)(=O)C(C)C)n2)c(OC(C)C)cc1C1CCNCC1` [Ceritinib (C2)]: the Kd at MLKL is greater than 10000 nM.
`Nc1ncc(-c2cnn(C3CCNCC3)c2)nc1C(=O)O[C@@H](C(=O)Nc1ccccc1)c1ccccc1` [TDH-463, (R)-2-oxo-1-phenyl-2-(phenylamino)ethyl 3-amino-6-(1-(piperidin-4-yl)-1H-pyrazol-4-yl)pyrazine-2-carboxylate hydrochloride]: the Kd at MLKL amounted to 0.35 nM.
On the same count and under the same terms, as for `Nc1ncc(C2=CCNCC2)nc1C(=O)O[C@@H](C(=O)Nc1ccc(F)cc1)c1ccccc1` [TDH-068, (R)-2-((4-fluorophenyl)amino)-2-oxo-1-phenylethyl 3-amino-6-(1,2,3,6-tetrahydropyridin-4-yl)pyrazine-2-carboxylate hydrochloride], the figure is 380 nM.
With `CC(C)(C)OC(=O)N1CC[C@H](n2cc(-c3cnc(N)c(C(=O)OC(C(=O)Nc4ccc(F)cc4)c4ccccc4)n3)cn2)C1` (stereo partly drawn) [TDH-227, 2-((4-fluorophenyl)amino)-2-oxo-1-phenylethyl 3-amino-6-(1-((S)-1-(tert-butoxycarbonyl)pyrrolidin-3-yl)-1H-pyrazol-4-yl)pyrazine-2-carboxylate], on MLKL, the affinity, expressed as Kd, was 12 nM.
For the compound `Nc1ncc(-c2cnn(C3CCN(CCCCCCCCCCNc4cccc5c4C(=O)N(C4CCC(=O)NC4=O)C5=O)CC3)c2)nc1C(=O)O[C@@H](C(=O)Nc1ccc(F)cc1)c1ccccc1` (stereo partly drawn) [TDH-095, (R)-2-((4-fluorophenyl)amino)-2-oxo-1-phenylethyl 3-amino-6-(1-(1-(10-((2-(2,6-dioxopiperidin-3-yl)-1,3-dioxoisoindolin-4-yl)amino)decyl)piperidin-4-yl)-1H-pyrazol-4-yl)pyrazine-2-carboxylate], at MLKL, binding was put at a Kd of 26 nM.
On MLKL, `Nc1ncc(C2=CCN(C(=O)COCCOCCNC(=O)C3CN(c4ccc5c(c4)C(=O)N(C4CCC(=O)NC4=O)C5=O)C3)CC2)cc1C(=O)O[C@@H](C(=O)Nc1ccc(F)cc1)c1ccccc1` (stereo partly drawn) [TDH-087, (R)-2-((4-fluorophenyl)amino)-2-oxo-1-phenylethyl 6-amino-1′-(2-(2-(2-(1-(2-(2,6-dioxopiperidin-3-yl)-1,3-dioxoisoindolin-5-yl)azetidine-3-carboxamido)ethoxy)ethoxy)acetyl)-1′,2′,3′,6′-tetrahydro-[3,4′-bipyridine]-5-carboxylate] yielded a Kd of 38 nM.
With `CC(=O)N1CC[C@@H](n2cc(-c3cnc(N)c(C(=O)OC(C(=O)Nc4ccc(F)cc4)c4ccccc4)n3)cn2)C1` (stereo partly drawn) [TDH-229, 2-((4-fluorophenyl)amino)-2-oxo-1-phenylethyl 6-(1-((R)-1-acetylpyrrolidin-3-yl)-1H-pyrazol-4-yl)-3-aminopyrazine-2-carboxylate], on MLKL, the Kd was determined as 1.1 nM.
For `CC(=O)N1CC[C@H](n2cc(-c3cnc(N)c(C(=O)OC(C(=O)Nc4ccc(F)cc4)c4ccccc4)n3)cn2)C1` (stereo partly drawn) [TDH-228, 2-((4-fluorophenyl)amino)-2-oxo-1-phenylethyl 6-(1-((S)-1-acetylpyrrolidin-3-yl)-1H-pyrazol-4-yl)-3-aminopyrazine-2-carboxylate], the Kd on MLKL was found to be 1.2 nM.
At MLKL, `CC1CCC(NC(=O)[C@H](OC(=O)c2nc(-c3cnn(C4CCNCC4)c3)cnc2N)c2ccccc2)CC1` (stereo partly drawn) [TDH-424, (R)-2-((4-methylcyclohexyl)amino)-2-oxo-1-phenylethyl 3-amino-6-(1-(piperidin-4-yl)-1H-pyrazol-4-yl)pyrazine-2-carboxylate hydrochloride] registered a Kd of 5.1 nM.
As for `CC(=O)N1CCC(n2cc(-c3cnc(N)c(C(=O)O[C@@H](C(=O)Nc4ccc(F)cc4)c4ccccc4)n3)cn2)CC1` [TDH-097, (R)-2-((4-fluorophenyl)amino)-2-oxo-1-phenylethyl 6-(1-(1-acetylpiperidin-4-yl)-1H-pyrazol-4-yl)-3-aminopyrazine-2-carboxylate], the affinity on MLKL, expressed as Kd, was 0.73 nM.
Same read-out and setting: with `Nc1ncc(-c2cnn(C3CCNCC3)c2)nc1C(=O)O[C@@H](C(=O)Nc1ccc(F)cc1)c1cccc(Cl)c1` [hydrochloride] the figure was 2 nM; with `Cc1ccc(NC(=O)[C@H](OC(=O)c2nc(-c3cnn(C4CCNCC4)c3)cnc2N)c2ccccc2)cc1` [TDH-319, (R)-2-oxo-1-phenyl-2-(p-tolylamino)ethyl 3-amino-6-(1-(piperidin-4-yl)-1H-pyrazol-4-yl)pyrazine-2-carboxylate hydrochloride], 0.82 nM.
